Patent US4599352A, “Antineoplastic platinum (IV) complexes and compositions” (priority 1984, dated 1986)

Key:
[1] = system: L1210 and L1210/Cisplatin leukemia; experiment: Total number of long-term survivors in Tables 2-4; type: in vivo, CD2Fl mice; conditions: Tables 2-4 summed
Text: If one summarizes the data in Tables 2-4 by totalling the number of long-term survivors, unexpected differences among the isomers become apparent. For example, the trans l compound produced 30 long-term survivors.

[2] = system: IP-Implanted L1210 Leukemia; experiment: Dose-response against IP-implanted L1210 leukemia, IP treatment Days 1, 5 and 9, 30-day test (Table 2); type: in vivo, CD2Fl male mice
Protocol: (§1) Biological properties of the compounds of the present invention were determined following the protocol described in Cancer Chemotherapy Reports, Vol. 3, No. 3, 1972 which report is incorporated herein by reference.
(§2) This experiment (A8-00005 3LE31) was conducted at the Southern Research Institute, Birmingham, Ala. under the supervision of Dr. Daniel Griswold. The protocols were the same as those published previously (Geran et al., Cancer Chemotherapy Reports 3: No. 2, 1972 [Attachment 11]). 10^5 cells were implanted intraperitoneally in CD2Fl male mice on Day 0. Drug treatments were given intraperitoneally as single injections at the doses indicated on Days 1, 5 and 9 after tumor implantation. The diluent was saline except for NSC-271674 where 5% sodium bicarbonate was used. All drugs were prepared fresh on the day of injection, and all were administered in solution. Median survival times for both control and drug-treated mice were determined and expressed as a percentage (% T/C). Body weights were determined on Day 5 and expressed as a weight difference (body weight of the drug-treated animals minus that of the control animals in grams) (T-C). The diluent control animals lived a median of 8.4 days and gained 1.9 grams by Day 5 in this experiment. All animals, including Day 30 survivors, were used in the calculation of median survival times. The log10 change in tumor burden refers to the net log change in viable tumor cell population at the end of therapy (Rx) as compared to the start of therapy; e.g., a […] means that there was a […] and a 3 log change means there was a 1000-fold increase in tumor burden at the end of therapy. The tumor burden at the start of therapy was about 6.1×10^5 cells in this experiment.

[3] = system: IP L1210/Cisplatin; experiment: Activity against IP-implanted L1210/Cisplatin leukemia resistant to cisplatin, 60 day test (Table 4); type: in vivo, Female CD2Fl mice
Protocol: as §1
Other known mechanisms of resistance for other classes of agents, such as gene amplification or target enzyme change or amplication, also need to be explored. The experiments summarized in Table 3 were conducted at the same time against both sublines using the same drug preparations. […] These experiments were repeated in a second laboratory as documented in Table 4. However, in these experiments the animals were held for 60 rather than 30 days to evaluate whether or not long-term survivors are produced after drug treatment in a more challenging setting. […]
(§3) These experiments (23-00081 3LE31 and 23-00003 3DP3l) were conducted concurrently at the Mason Research Institute, Worcester, MA under the supervision of Dr. William Cobb. See Table 4 for experimental details. The diluent control animals bearing L1210 leukemia lived a median of 8.3 days and gained 1.6 grams by Day 5. […] Female CD2Fl mice were used for these experiments.

[4] = system: IP L1210; experiment: Activity against IP-implanted L1210 leukemia sensitive to cisplatin, 60 day test (Table 4); type: in vivo, Female CD2Fl mice
Protocol: as §1
Other known mechanisms of resistance for other classes of agents, such as gene amplification or target enzyme change or amplication, also need to be explored. The experiments summarized in Table 3 were conducted at the same time against both sublines using the same drug preparations. […] These experiments were repeated in a second laboratory as documented in Table 4. However, in these experiments the animals were held for 60 rather than 30 days to evaluate whether or not long-term survivors are produced after drug treatment in a more challenging setting.
as §2, §3

Compound: [Cl][Pt-2]1([Cl])([Cl])([Cl])[NH2+][C@@H]2CCCC[C@H]2[NH2+]1 [trans (l), (1R,2R)-Tetrachloro-trans-1,2-cyclohexanediammine platinum (IV)]
- Total number of long-term survivors [1]: 30
- 30-Day Survivors/Total ([2]; 1 mg/kg/dose IP): 0/6
- Approx. Log10 Change in Tumor Burden at End of Rx ([2]; 1 mg/kg/dose IP): ~2.7 log10
- Body Weight Difference ([2]; 1 mg/kg/dose IP): -0.4 Grams
- Median % T/C ([2]; 1 mg/kg/dose IP): 134%
- 30-Day Survivors/Total ([2]; 2 mg/kg/dose IP): 0/6
- Approx. Log10 Change in Tumor Burden at End of Rx ([2]; 2 mg/kg/dose IP): ~1.7 log10
- Body Weight Difference ([2]; 2 mg/kg/dose IP): -0.9 Grams
- Median % T/C ([2]; 2 mg/kg/dose IP): 170%
- 30-Day Survivors/Total ([2]; 4 mg/kg/dose IP): 2/6
- Approx. Log10 Change in Tumor Burden at End of Rx ([2]; 4 mg/kg/dose IP): ~-2.8 log10
- Body Weight Difference ([2]; 4 mg/kg/dose IP): -1.2 Grams
- Median % T/C ([2]; 4 mg/kg/dose IP): 238%
- 30-Day Survivors/Total ([2]; 8 mg/kg/dose IP): 1/6
- Approx. Log10 Change in Tumor Burden at End of Rx ([2]; 8 mg/kg/dose IP): ~-5.7 log10
- Body Weight Difference ([2]; 8 mg/kg/dose IP): -2.5 Grams
- Median % T/C ([2]; 8 mg/kg/dose IP): 319%
- Body Weight Difference ([2]; 8 mg/kg/dose IP, listed as trans l): less than -4 Grams
- 30-Day Survivors/Total ([2]; 16 mg/kg/dose IP): 0/6
- Approx. Log10 Change in Tumor Burden at End of Rx ([2]; 16 mg/kg/dose IP): ~3.0 log10
- Body Weight Difference ([2]; 16 mg/kg/dose IP): -3.5 Grams
- Median % T/C ([2]; 16 mg/kg/dose IP): 119%
- Optimal dose (dose producing best therapeutic response) ([2]; day 1, 5 and 9 schedule): 8 mg/kg/injection
- 60 Day Survivors/Total ([3]; 1 mg/kg/dose): 0/10
- Body Weight Difference ([3]; 1 mg/kg/dose): -1.1 Grams
- Median % T/C ([3]; 1 mg/kg/dose): 132%
- 60 Day Survivors/Total ([3]; 2 mg/kg/dose): 4/10
- Body Weight Difference ([3]; 2 mg/kg/dose): -0.8 Grams
- Median % T/C ([3]; 2 mg/kg/dose): 239%
- 60 Day Survivors/Total ([3]; 4 mg/kg/dose): 3/8
- Body Weight Difference ([3]; 4 mg/kg/dose): -1.7 Grams
- Median % T/C ([3]; 4 mg/kg/dose): 376%
- 60 Day Survivors/Total ([3]; 8 mg/kg/dose): 0/10
- Body Weight Difference ([3]; 8 mg/kg/dose): -3.5 Grams
- Median % T/C ([3]; 8 mg/kg/dose): 133%
- 60 Day Survivors/Total ([3]; 16 mg/kg/dose): 0/10
- Body Weight Difference ([3]; 16 mg/kg/dose): -7.3 Grams
- Median % T/C ([3]; 16 mg/kg/dose): Toxic
- 60 Day Survivors/Total ([4]; 1 mg/kg/dose): 0/10
- Body Weight Difference ([4]; 1 mg/kg/dose): -0.4 Grams
- Median % T/C ([4]; 1 mg/kg/dose): 146%
- 60 Day Survivors/Total ([4]; 2 mg/kg/dose): 2/10
- Body Weight Difference ([4]; 2 mg/kg/dose): -0.8 Grams
- Median % T/C ([4]; 2 mg/kg/dose): 216%
- 60 Day Survivors/Total ([4]; 4 mg/kg/dose): 0/10
- Body Weight Difference ([4]; 4 mg/kg/dose): -2.2 Grams
- Median % T/C ([4]; 4 mg/kg/dose): 208%
- 60 Day Survivors/Total ([4]; 8 mg/kg/dose): 1/10
- Body Weight Difference ([4]; 8 mg/kg/dose): -3.7 Grams
- Median % T/C ([4]; 8 mg/kg/dose): 228%
- 60 Day Survivors/Total ([4]; 16 mg/kg/dose): 0/10
- Body Weight Difference ([4]; 16 mg/kg/dose): -5.9 Grams
- Median % T/C ([4]; 16 mg/kg/dose): Toxic

Compound: N[C@@H]1CCCC[C@H]1N.O=C([O-])c1ccc(C(=O)[O-])c(C(=O)[O-])c1.[H+].[Pt+2] [Carboxyphthalato Platinum, carboxyphthalatocyclohexanediamine platinum (II), reference compound]
- 30-Day Survivors/Total ([2]; 3.13 mg/kg/dose IP): 0/6
- Approx. Log10 Change in Tumor Burden at End of Rx ([2]; 3.13 mg/kg/dose IP): ~2.5 log10
- Body Weight Difference ([2]; 3.13 mg/kg/dose IP): -0.5 Grams
- Median % T/C ([2]; 3.13 mg/kg/dose IP): 146%
- 30-Day Survivors/Total ([2]; 6.25 mg/kg/dose IP): 0/6
- Approx. Log10 Change in Tumor Burden at End of Rx ([2]; 6.25 mg/kg/dose IP): ~2.3 log10
- Body Weight Difference ([2]; 6.25 mg/kg/dose IP): -0.8 Grams
- Median % T/C ([2]; 6.25 mg/kg/dose IP): 154%
- 30-Day Survivors/Total ([2]; 12.5 mg/kg/dose IP): 2/6
- Approx. Log10 Change in Tumor Burden at End of Rx ([2]; 12.5 mg/kg/dose IP): -5.7 log10
- Body Weight Difference ([2]; 12.5 mg/kg/dose IP): -2.1 Grams
- Median % T/C ([2]; 12.5 mg/kg/dose IP): 309%
- 30-Day Survivors/Total ([2]; 25 mg/kg/dose IP): 4/6
- Approx. Log10 Change in Tumor Burden at End of Rx ([2]; 25 mg/kg/dose IP): -5.7 log10
- Body Weight Difference ([2]; 25 mg/kg/dose IP): -1.5 Grams
- Median % T/C ([2]; 25 mg/kg/dose IP): 357%
- 30-Day Survivors/Total ([2]; 50 mg/kg/dose IP): 2/6
- Approx. Log10 Change in Tumor Burden at End of Rx ([2]; 50 mg/kg/dose IP): -5.7 log10
- Body Weight Difference ([2]; 50 mg/kg/dose IP): -5.0 Grams
- Median % T/C ([2]; 50 mg/kg/dose IP): 345%
- Body Weight Difference ([2]; 50 mg/kg/dose IP, listed as carboxyphthalato cyclohexanediamine platinum (II)): more than -4 Grams
- 60 Day Survivors/Total ([3]; 3.13 mg/kg/dose): 6/10
- Body Weight Difference ([3]; 3.13 mg/kg/dose): -1.2 Grams
- Median % T/C ([3]; 3.13 mg/kg/dose): 645%
- 60 Day Survivors/Total ([3]; 6.25 mg/kg/dose): 2/10
- Body Weight Difference ([3]; 6.25 mg/kg/dose): -2.9 Grams
- Median % T/C ([3]; 6.25 mg/kg/dose): 236%
- 60 Day Survivors/Total ([3]; 12.5 mg/kg/dose): 0/10
- Body Weight Difference ([3]; 12.5 mg/kg/dose): -5.5 Grams
- Median % T/C ([3]; 12.5 mg/kg/dose): Toxic
- 60 Day Survivors/Total ([3]; 25 mg/kg/dose): 0/10
- Body Weight Difference ([3]; 25 mg/kg/dose): -3.7 Grams
- Median % T/C ([3]; 25 mg/kg/dose): Toxic
- 60 Day Survivors/Total ([3]; 50 mg/kg/dose): 0/10
- Median % T/C ([3]; 50 mg/kg/dose): Toxic
- 60 Day Survivors/Total ([4]; 3.13 mg/kg/dose): 2/10
- Body Weight Difference ([4]; 3.13 mg/kg/dose): -2.3 Grams
- Median % T/C ([4]; 3.13 mg/kg/dose): 280%
- 60 Day Survivors/Total ([4]; 6.25 mg/kg/dose): 2/10
- Body Weight Difference ([4]; 6.25 mg/kg/dose): -3.5 Grams
- Median % T/C ([4]; 6.25 mg/kg/dose): 313%
- 60 Day Survivors/Total ([4]; 12.5 mg/kg/dose): 0/10
- Body Weight Difference ([4]; 12.5 mg/kg/dose): -6.0 Grams
- Median % T/C ([4]; 12.5 mg/kg/dose): Toxic
- 60 Day Survivors/Total ([4]; 25 mg/kg/dose): 0/10
- Median % T/C ([4]; 25 mg/kg/dose): Toxic
- 60 Day Survivors/Total ([4]; 50 mg/kg/dose): 0/10
- Median % T/C ([4]; 50 mg/kg/dose): Toxic
